# Experiments:
# [1] = system: Broad-horned flour beetle (Gnathocerus cornutus); test: Fumigation test in glass vessel, broad-horned flour beetles; type: in vivo; settings: GNATCO beetles; Example 3; gas 45.8 g/m^3, 17.2° C. (1st fumigation), 45.4 g/m^3, 17.7° C. (2nd); 54% rel. air humidity
# Excerpt: (§1) a3) Broad-horned flour beetle (Gnathocerus cornutus)=GNATCO
# (§2) The test organisms, separated by species, were placed into a glass vessel measuring 30 cm×30 cm×60 cm, which was sealed with a glass lid so as to be airtight. The adults and the larvae of the mealworm beetle (Tenebrio molitor) and the broad-horned flour beetle (Gnathocerus cornutus) were placed into small glass vessels approximately 5 cm in diameter, which were closed with a gauze lid and in which they could freely move about. The larvae of the rice weevil had burrowed into seeds of grain. The wood pest larvae were inserted into small blocks of wood measuring 5 cm×2.5 cm×2 cm. The openings were sealed with wads of cotton wool. Only one each of the larvae of the house longhorn beetle (Hylotrupes bajulus) was inserted into a piece of wood, while 6-8 larvae of the common furniture beetle (Anobium punctatum) were inserted into each piece of wood.
# (§3) The respective gas was then introduced into the fumigation vessel through a gas line from a gas tank that contained the specified amount of gas. After a defined time period, the fumigation vessel was purged with compressed air. The discharged gas was purified by an attached gas scrubber.
# (§4) The beetles were observed until they died. This point was recorded for each species. The larvae of the wood pests as well as the larvae of the rice weevil (Sitophilus oryzae) had to be picked out of the wood or the grain to check their condition. If any of the animals were still alive, the wooden test blocks remaining in the vessel were fumigated again and were reexamined after the corresponding time span had elapsed. The same number of animals in the untreated control was also checked at each point.
# (§5) The vitality of the animals was checked at certain time intervals. The beetles could be observed through the fumigation vessel. This was also true for the larvae of the mealworm beetle and the broad-horned flour beetle. The wooden test blocks of the wood pest larvae were opened with hammer and chisel. Tweezers were used to pull the rice weevil larvae out of the grain seeds. The exact time intervals and the number of the evaluated pests were documented in the test results.
# [2] = system: Mealworm beetle (Tenebrio molitor) larvae; test: Fumigation test in glass vessel, mealworm beetle larvae; type: in vivo; settings: TENEMO larvae; Example 3; gas 45.8 g/m^3, 17.2° C. (1st fumigation), 45.4 g/m^3, 17.7° C. (2nd); 54% rel. air humidity
# Excerpt: (§6) a1) Mealworm beetle (Tenebrio molitor)=TENEMO
# as §2, §3, §4, §5
# [3] = system: wood and storage pests; test: Fumigation test, wood and storage pests (overall statements); type: in vivo; settings: Conclusion of Examples 1-5
# Excerpt: as §2, §3, §4, §5
# [4] = system: Saw-toothed grain beetle (Oryzaephilus surinamensis); test: Fumigation test in glass vessel, saw-toothed grain beetles; type: in vivo; settings: ORYZSA beetles; Example 3; gas 45.8 g/m^3, 17.2° C. (1st fumigation), 45.4 g/m^3, 17.7° C. (2nd); 54% rel. air humidity
# Excerpt: a4) Saw-toothed grain beetle (Oryzaephilus surinamensis)=ORYZSA
# as §2, §3, §4, §5
# [5] = system: Mealworm beetle (Tenebrio molitor); test: Fumigation test in glass vessel, mealworm beetles; type: in vivo; settings: TENEMO beetles; Example 3; gas 45.8 g/m^3, 17.2° C. (1st fumigation), 45.4 g/m^3, 17.7° C. (2nd); 54% rel. air humidity
# Excerpt: as §6, §2, §3, §4, §5
# [6] = system: House longhorn beetle (Hylotrupes bajulus) larvae; test: Fumigation test in glass vessel, house longhorn beetle larvae in wood blocks; type: in vivo; settings: HYLOBA larvae in wood blocks
# Excerpt: (§7) b1) House longhorn beetle (Hylotrupes bajulus)=HYLOBA
# as §2, §3, §4, §5
# [7] = system: Rice weevil (Sitophilus oryzae); test: Fumigation test in glass vessel, rice weevils; type: in vivo; settings: SITTOR beetles; Example 3; gas 45.8 g/m^3, 17.2° C. (1st fumigation), 45.4 g/m^3, 17.7° C. (2nd); 54% rel. air humidity
# Excerpt: (§8) a2) Rice weevil (Sitophilus oryzae)=SITTOR
# as §2, §3, §4, §5
# [8] = system: Common furniture beetle (Anobium punctatum) larvae; test: Fumigation test in glass vessel, common furniture beetle larvae in wood blocks; type: in vivo; settings: ANOBPU larvae in wood blocks
# Excerpt: (§9) b2) Common furniture beetle (Anobium punctatum)=[…]
# as §2, §3, §4, §5
# [9] = system: Broad-horned flour beetle (Gnathocerus cornutus) larvae; test: Fumigation test in glass vessel, broad-horned flour beetle larvae; type: in vivo; settings: GNATCO larvae; Example 3; gas 45.8 g/m^3, 17.2° C. (1st fumigation), 45.4 g/m^3, 17.7° C. (2nd); 54% rel. air humidity
# Excerpt: as §1, §2, §3, §4, §5
# [10] = system: Common furniture beetle (Anobium punctatum); test: Fumigation test in glass vessel, common furniture beetles; type: in vivo; settings: ANOBPU beetles
# Excerpt: as §9, §2, §3, §4, §5
# [11] = system: Rice weevil (Sitophilus oryzae) larvae; test: Fumigation test in glass vessel, rice weevil larvae in grain seeds; type: in vivo; settings: SITTOR larvae in grain seeds; Example 3; gas 45.8 g/m^3, 17.2° C. (1st fumigation), 45.4 g/m^3, 17.7° C. (2nd); 54% rel. air humidity
# Excerpt: as §8, §2, §3, §4, §5
# [12] = system: House longhorn beetle (Hylotrupes bajulus); test: Fumigation test in glass vessel, house longhorn beetles; type: in vivo; settings: HYLOBA beetles
# Excerpt: as §7, §2, §3, §4, §5
# [13] = system: wood pests (house longhorn beetle, common furniture beetle); test: Fumigation test, wood pests; type: in vivo, Hylotrupes bajulus, Anobium punctatum
# Excerpt: as §2, §3, §4, §5
# [14] = Example 1, gas 54.8 g/m^3, 16° C. (1st fumigation), 58.0 g/m^3, 13° C. (2nd), 66% rel. air humidity
# [15] = Example 2, ventilator operation in vessel, gas 57.6 g/m^3, 20.6° C. (1st fumigation), 48.0 g/m^3, 21.5° C. (2nd)
structure (smiles),measurement,setting,value
"O=C(F)C(F)(F)F [Trifluoroacetyl Fluoride, Trifluoroacetyl fluoride]","Number alive, 1 hr. after Start of Fumigation",[1],0
same,"Number dead, 1 hr. after Start of Fumigation",[1],15
same,"Number alive, 1 hr. after Start of Fumigation",[2],0
same,"Number dead, 1 hr. after Start of Fumigation",[2],15
same,Effectiveness against exposed beetles and larvae,[3],very effective
same,"Number alive, 1 hr. after Start of Fumigation",[4],0
same,"Number dead, 1 hr. after Start of Fumigation",[4],15
same,"Number alive, 1 hr. after Start of Fumigation",[5],0
same,"Number dead, 1 hr. after Start of Fumigation",[5],15
same,"Number alive, 24 hrs. after Start of Fumigation",[6]; [14],6
same,"Number alive, 48 hrs. after Start of Fumigation",[6]; [14],3
same,"Number dead, 24 hrs. after Start of Fumigation",[6]; [14],0
same,"Number dead, 48 hrs. after Start of Fumigation",[6]; [14],3
same,"Number alive, 12 hrs. after Start of Fumigation",[6]; [15],7
same,"Number alive, 24 hrs. after Start of Fumigation",[6]; [15],7
same,"Number alive, 48 hrs. after Start of Fumigation",[6]; [15],6
same,"Number dead, 12 hrs. after Start of Fumigation",[6]; [15],0
same,"Number dead, 24 hrs. after Start of Fumigation",[6]; [15],0
same,"Number dead, 48 hrs. after Start of Fumigation",[6]; [15],1
same,"Number alive, 1 hr. after Start of Fumigation",[7],0
same,"Number dead, 1 hr. after Start of Fumigation",[7],20
same,"Number alive, 24 hrs. after Start of Fumigation",[8]; [14],10
same,"Number alive, 48 hrs. after Start of Fumigation",[8]; [14],6
same,"Number dead, 24 hrs. after Start of Fumigation",[8]; [14],0
same,"Number dead, 48 hrs. after Start of Fumigation",[8]; [14],4
same,"Number alive, 12 hrs. after Start of Fumigation",[8]; [15],11
same,"Number alive, 24 hrs. after Start of Fumigation",[8]; [15],10
same,"Number alive, 48 hrs. after Start of Fumigation",[8]; [15],0
same,"Number dead, 12 hrs. after Start of Fumigation",[8]; [15],1
same,"Number dead, 24 hrs. after Start of Fumigation",[8]; [15],2
same,"Number dead, 48 hrs. after Start of Fumigation",[8]; [15],12
same,"Number alive, 1 hr. after Start of Fumigation",[9],0
same,"Number dead, 1 hr. after Start of Fumigation",[9],15
same,"Number alive, 1 hr. after Start of Fumigation",[10]; [14],0
same,"Number dead, 1 hr. after Start of Fumigation",[10]; [14],6
same,"Number alive, 1 hr. after Start of Fumigation",[10]; [15],0
same,"Number dead, 1 hr. after Start of Fumigation",[10]; [15],6
same,"Number alive, 1 hr. after Start of Fumigation",[11],5
same,"Number alive, 3 hrs. after Start of Fumigation",[11],0
same,"Number dead, 1 hr. after Start of Fumigation",[11],15
same,"Number dead, 3 hrs. after Start of Fumigation",[11],20
same,"Number alive, 1 hr. after Start of Fumigation",[12]; [14],2
same,"Number alive, 3 hrs. after Start of Fumigation",[12]; [14],0
same,"Number dead, 1 hr. after Start of Fumigation",[12]; [14],4
same,"Number dead, 3 hrs. after Start of Fumigation",[12]; [14],6
same,"Number alive, 1 hr. after Start of Fumigation",[12]; [15],1
same,"Number alive, 12 hrs. after Start of Fumigation",[12]; [15],0
same,"Number dead, 1 hr. after Start of Fumigation",[12]; [15],5
same,"Number dead, 12 hrs. after Start of Fumigation",[12]; [15],6
same,Time after which the animals became very active,"[13]; Example 1, exposed beetles and larvae, gas 54.8 g/m^3, 16° C.",1 to 2 min
same,"Time after which all the beetles lay on their backs, only legs and feelers moving slightly","[13]; Example 1, exposed beetles, gas 54.8 g/m^3, 16° C.",about 10 minutes
same,Penetration of the wood to kill the larvae completely,"[13]; Example 1, larvae in wooden test blocks, within a time span of 48 hours",does not penetrate the wood sufficiently
same,Time after which larvae without wooden test blocks were dead,"[13]; Example 1, larvae without wooden test blocks, gas 54.8 g/m^3, 16° C.",approximately 1 hour
same,Effectiveness with respect to the larvae with ventilators,"[13]; Example 2, air circulation through ventilators, compared with Example 1",no improvement in the effectiveness
